Where “and” joins values, the source holds several entries; their conditions need not be identical. Equal entries are not always repeated. Where two headings read alike, the source gives them in different places.
How the values were obtained:
[1] = test system: AML (Acute myeloid leukemia) PDCs, M4 subtype (SB 33866); assay: Anti-proliferation assay on AML PDCs; format: cell-based, human; conditions: for Inhibitory Concentration IC75 / Inhibitory Concentration IC25 / IC50: AML cells (M4); for Inhibitory Concentration IC25: calculated using IC50 and hill slope; for IC50: read-out: Inhibitory Concentration IC50; for inhibition at 10 µM: assay drug control @ 10 uM
Experimental: Anti-proliferation assays were performed on 6 types of primary patient-derived cancer cells (PDCs) from 6 different human donors, as described in Table 1:
Tests were performed in 384-well plates (24×16), using 1250 to 10,000 cells/well depending on the size and proliferation rate of different PDCs, in 30 ul of culture media (DMEM/F12 with serum and growth factors), with control wells set aside on each plate for media alone (4 wells), untreated PDCs (4 wells), and for PDCs treated with 10 ul of a known anti-cancer drug as a control. […] The outermost rows/columns of the plates were filled with PBS (pH 7.4) to avoid an edge-effect and were considered as blanks.
Standardized aqueous extracts identified in Table 2 were prepared in main stock solutions by dissolving 1 mg of extract in 1 ml PBS (phosphate-buffered saline, pH 7.4).
Anti-Proliferation Assay Protocol: 30 ul of cells were plated at the density of 1250 to 10,000 cells/well. The plate was incubated in a CO2 incubator for 0/N incubation for 24 hours. […] Final assay concentrations of made from stock solutions of standardized aqueous extracts identified in Table 2 were 100 ug/ml, 30 ug/ml, and 10 ug/ml. Since 10 ul extract was added to 30 ul of cell suspension, it diluted 4 times, so to maintain the final assay concentrations, 4× concentrated extract solutions (400 ug/ml, 120 ug/ml, and 40 ug/mo) were prepared from main stock (1 mg/ml) and added to the plate. In all experiments, 10 ul of 4 times concentrated stock (4×) was added to wells containing 30 ul of cell suspension to achieve final assay concentrations at 1X.
Once extracts were added to incubated cells and mixed gently, the plate was given a brief spin and incubated in the CO2 incubator for 72 hours. The plate was removed from the incubator and 10 ul of detection reagent (CellTiterGlo®; Promega Corporation, Wisconsin, USA) added to each well of the 384 well plate. The plate was incubated (10 min) and luminescence counts measured, with luminescence produced proportional to the number of viable (living, metabolically active) cells for each assay. The assay described above is a two-dimensional (2D) assay.
In this Example, AML drugs were used as disease specific controls.
As discussed above in Example I, 6 extracts (Ayuflex®, Capros®, Phyto-BGS®, PrimaVie®, Sensoril®, and Ayuric®) were tested on AML PDC-SB cells (33866, M-4 type, subject) at 3 concentrations: 100 ug/ml, 30 ug/ml, and 10 ug/ml.

AML cell line HL60 = assay: Anti-proliferation assay on HL60 AML cells; format: cell-based; conditions: for IC25 / IC75: potential dosing for further experiments
Experimental: 2500 cells were plated per well in 384 well plates. […] CellTiter Glo was used as a detection reagent. Extracts were incubated with the AML HL60 cells for 72 hours.

[2] = test system: Glioma PDCs (Glioblastoma Grade IV); assay: Anti-proliferation assay (CellTiterGlo, 72 h) on glioma PDCs; format: cell-based, human
Experimental: (§1) The outermost rows/columns of the plates were filled with PBS (pH 7.4) to avoid an edge-effect and were considered as blanks. Standardized aqueous extracts identified in Table 2 were prepared in main stock solutions by dissolving 1 mg of extract in 1 ml PBS (phosphate-buffered saline, pH 7.4). […] The plate was incubated in a CO2 incubator for 0/N incubation for 24 hours. […] Once extracts were added to incubated cells and mixed gently, the plate was given a brief spin and incubated in the CO2 incubator for 72 hours. The plate was removed from the incubator and 10 ul of detection reagent (CellTiterGlo®; Promega Corporation, Wisconsin, USA) added to each well of the 384 well plate. […] The assay described above is a two-dimensional (2D) assay.

[3] = test system: Breast Cancer PDCs, ER/PR+ Her2 equivocal (HR+); assay: Anti-proliferation assay on breast cancer HR+ PDCs; format: cell-based, human; conditions: drug alone @ 10 uM; for inhibition at 10 µM: Homo sapiens
Experimental: as §1

[4] = test system: Breast Cancer PDCs, ER/PR− Her2+ (Her2+); assay: Anti-proliferation assay on breast cancer Her2+ PDCs; format: cell-based, human; conditions: drug alone @ 10 uM; for inhibition at 10 µM: Homo sapiens
Experimental: as §1

[5] = test system: Breast Cancer PDCs, Triple negative (TN), SB 36344; assay: Anti-proliferation assay on breast cancer TN PDCs; format: cell-based, human; conditions: drug alone @ 10 uM; for inhibition at 10 µM: Homo sapiens
Experimental: as §1

[6] = test system: Glioma SB 32833 Glioblastoma Grade IV patient derived cells; assay: Anti-proliferation assay on glioma PDCs SB 32833; format: cell-based; conditions: Homo sapiens; for inhibition at 10 µM: drug @ 10 uM; for inhibition at 100 µM: Temozolomide @ 100 uM
Experimental: The anti-cancer activity of AyuFlex®, Capros®, and Ayuric® was further tested on two other glioma PDCs taken from 2-3 different subjects (SB 6129, SB 32833 (person)). […] Also, the anti-cancer activity of AyuFlex®, Capros®, and Ayuric® was further tested on existing glioblastoma cell line U87 MG, to allow comparisons with other compositions known in the art. AyuFlex®, Capros®, and/or Ayuric® were incubated with the new PDC lines and the U87 MG cell line for 72 hours, as described in Example I above.
Table 68 relates to FIG. 31, a graph showing the efficacy of AyuFlex®, Capros®, and/or Ayuric® on Glioma SB 32833 Glioblastoma Grade IV patient derived cells, in a combination study.

[7] = read-out: % Inhibition, single replicates

For `Nc1ccn([C@@H]2O[C@H](CO)[C@@H](O)[C@@H]2O)c(=O)n1` [Cytarabine, cytarabine], the “Inhibitory Concentration IC75” value [1] was 0.47 µM, the “Inhibitory Concentration IC25” value [1] was 0.023 µM and the inhibition at 3 µM ([1]; Homo sapiens, drug alone 3 uM, read-out: inhibition of AML proliferation) was 99%. For the same molecule, the inhibition at 3 µM ([1]; Homo sapiens, drug alone @ 3 uM, read-out: % Inhibition Avg) was 99%, the inhibition at 3 µM ([1]; Homo sapiens, drug alone @ 3 uM, read-out: % Inhibition n1) was 99% and the inhibition at 3 µM ([1]; Homo sapiens, drug alone @ 3 uM, read-out: % Inhibition n2) was 99%. The inhibition at 3 µM ([1]; Homo sapiens, drug alone @ 3 uM, read-out: % Inhibition n3) was 99%, the IC50 ([1]; Homo sapiens) was 0.104 µM and the IC25 (AML cell line HL60; HL60 AML cells) was 0.298 µM. It also gave an IC75 (AML cell line HL60; HL60 AML cells) of 1.08 µM, an inhibition at 3 µM (AML cell line HL60; Homo sapiens, HL-60) of no less than 90% and an IC50 (AML cell line HL60; Homo sapiens, HL-60, dose-response curve, FIG. 35) of 0.567 µM.

`CS(=O)(=O)N1CCN(Cc2cc3nc(-c4cccc5[nH]ncc45)nc(N4CCOCC4)c3s2)CC1` [GDC-0941, pictilisib] was tested, and the inhibition at 10 µM ([2]; Homo sapiens, drug alone @ 10 uM, read-out: % Inhibition Avg) was 81%, the inhibition at 10 µM ([2]; Homo sapiens, drug alone @ 10 uM, read-out: % Inhibition, single replicates) was 83% and the “% Inhibition, single replicates” value ([2]; drug alone @ 10 uM, 10 µM) was 79%. The inhibition at 10 µM ([3]; read-out: % Inhibition Avg) was 68%, the inhibition at 10 µM [3, 7] was 70% and the “% Inhibition, single replicates” value ([3]; 10 µM) was 67%. The inhibition at 10 µM ([4]; read-out: % Inhibition Avg) was 70%, the inhibition at 10 µM [4, 7] was 71% and the “% Inhibition, single replicates” value ([4]; 10 µM) was 69%. For the same molecule, the inhibition at 10 µM ([5]; read-out: % Inhibition Avg) was 83%, the inhibition at 10 µM [5, 7] was 84% and the “% Inhibition, single replicates” value ([5]; 10 µM) was 82%. For the same molecule, the inhibition at 10 µM ([1]; Homo sapiens, read-out: % Inhibition Avg) was 59%, the inhibition at 10 µM ([1]; Homo sapiens, read-out: % Inhibition n1) was 56% and the inhibition at 10 µM ([1]; Homo sapiens, read-out: % Inhibition n2) was 63%. For the same molecule, the inhibition at 10 µM ([6]; read-out: % Inhibition Avg) was 100%, the inhibition at 10 µM ([6]; read-out: % Inhibition n1) was 100% and the inhibition at 10 µM ([6]; read-out: % Inhibition n2) was 100%. It also gave an inhibition at 10 µM ([6]; read-out: % Inhibition n3) of 100%.

For `Cn1nnc2c(C(N)=O)ncn2c1=O` [Temozolomide, temozolomide], the inhibition at 30 µM ([2]; Homo sapiens, Temozolomide alone @ 30 uM) was 24%, the inhibition at 100 µM ([2]; Homo sapiens, Temozolomide alone @ 100 uM, read-out: % Inhibition Avg) was 32% and the inhibition at 100 µM ([2]; Homo sapiens, Temozolomide alone @ 100 uM, read-out: % Inhibition, single replicates) was 41%. For the same molecule, the inhibition at 300 µM ([2]; Homo sapiens, Temozolomide alone @ 300 uM, read-out: % Inhibition Avg) was 19%, the inhibition at 300 µM ([2]; Homo sapiens, Temozolomide alone @ 300 uM, read-out: % Inhibition, single replicates) was 28% and the “% Inhibition, single replicates” value ([2]; Temozolomide alone @ 30 uM, 30 µM) was 16% and 15%. For the same molecule, the “% Inhibition, single replicates” value ([2]; Temozolomide alone @ 100 uM, 100 µM) was 27% and 29%, the “% Inhibition, single replicates” value ([2]; Temozolomide alone @ 300 uM, 300 µM) was 14% and 15% and the inhibition at 100 µM ([6]; read-out: % Inhibition Avg) was 27%. For the same molecule, the inhibition at 100 µM ([6]; read-out: % Inhibition n1) was 41%, the inhibition at 100 µM ([6]; read-out: % Inhibition n2) was 21% and the inhibition at 100 µM ([6]; read-out: % Inhibition n3) was 18%.

In the case of arsenic trioxide, the “Inhibitory Concentration IC75” value [1] is reported as 6.45 µM, the “Inhibitory Concentration IC25” value [1] is reported as 1.38 µM and the IC50 [1] is reported as 2.99 µM. The “inhibition of AML proliferation” value ([1]; drug alone 3 uM) was 97%, the “% Inhibition Avg” value ([1]; drug alone @ 3 uM) was 97% and the “% Inhibition n1” value ([1]; drug alone @ 3 uM) was 97%. For the same molecule, the “% Inhibition n2” value ([1]; drug alone @ 3 uM) was 97%, the “% Inhibition n3” value ([1]; drug alone @ 3 uM) was 97% and the IC50 (AML cell line HL60; HL60 AML cells) was 2.43 µM. For the same molecule, the IC25 (AML cell line HL60; HL60 AML cells) was 1.72 µM, the IC75 (AML cell line HL60; HL60 AML cells) was 3.01 µM and the IC50 (AML cell line HL60; dose-response curve, FIG. 35) was 2.3 µM.

Source: US20220233624A9, “ANTI-CANCER AND ANTI-PROLIFERATIVE COMPOSITIONS, AND METHODS FOR THEIR USE IN TREATING CANCER” (Natreon, Inc., priority 2020, published 2022)
